The results in this text go back to patent US20070142396A1, “Treatment of pain with 1-[3-[4-(3-chlorophenyl)-1-piperazinyl]propyl]-5-methoxy-3,4-dihydro-2(1H)-quinolone or salt thereof” (Vela Pharmaceuticals, Inc., priority 2005, published 2007).

Molecules are shown by their SMILES.

Test [1] concerns rats with L5 spinal nerve ligation (SNL model). Kind of test: Spinal nerve ligation (L5) neuropathic pain model, mechanical threshold with von Frey filaments (Example 4). Format: in vivo, rat. As to conditions: gabapentin 50 mg/kg i.p. An excerpt:
A total of 18 Sprague-Dawley (CD sub-strain) young adult (weight: 150-175 g) male rats were purchased from Harlan Sprague Dawley Company (Indianapolis, Ind.), Alabama colony. The rats were kept three per cage and had free access to food and water. Animals were kept in a room with a reversed light-dark cycle (light: 8:00 PM-8:00 AM) for 1 week before experimental manipulations. Ten rats were allocated to the present study. Eight rats were allocated to the study of Example 5, below.
(§1) The spinal nerve ligation (SNL) model of neuropathic pain was produced in all rats as described by Kim and Chung (Pain, 50, 355-363, 1992). Briefly, under gaseous anesthesia using halothane (3% for induction and 1.5% for maintenance) in oxygen, the left L5 spinal nerve was exposed by removing the paraspinal muscles and the transverse process of the L6 vertebra. The very proximal portion of the L5 spinal nerve was tightly ligated with 6-0 silk suture. The wounds were closed and anesthesia was discontinued. Rats were kept on a heated blanket until they had completely recovered from anesthesia.
OPC-14523 was dispersed in 0.5% tragacanth in distilled water at 20 mg/ml. It was administered as a oral injection in a dose of 100 mg/kg body weight. Gabapentin was prepared at 10 mg/ml in saline and was administered at 50 mg/kg body weight i.p. Gabapentin is a drug that was originally developed as an anticonvulsant but is now widely used as an analgesic for neuropathic pain (Abdi et al., Anesthesia & Analgesia 87:1360-1366 (1998)).
Ten rats were utilized in a Latin-square-design study comparing the activity of OPC-14523 and other compounds against neuropathic pain. Behavioral tests were conducted twice (1 day and 1 hour) before, as well as 1 and 4 days after, the neuropathic surgery. […] The ten rats were randomly divided into five groups of two rats each. […]
This procedure was repeated five times. […] The result was that all ten animals received each of the indicated five compounds in random order and then had mechanical thresholds determined at the indicated times.
Behavioral tests were conducted in a non-blind fashion. The foot withdrawal threshold to mechanical stimuli applied to the paw (mechanical threshold) was measured, as an indicator of mechanical sensitivity of the affected paw. The foot withdrawal threshold was measured using von Frey filaments. […] The mechanical thresholds were measured by using the “up-and-down” method (Chaplan et al., J. Neurosci. Methods 53(1):55-63, 1994), following the procedures described in previous studies (Park et al., Pain 87(2):171-179, 2000; Xie et al., J. Pain 2(5):270-278, 2001; Baik et al., J. Pain 4:212-221, 2003). […]

Test [2] shares this test system. In words: Spinal nerve ligation (L5) neuropathic pain model, von Frey filaments, dose range (Example 5). Format: in vivo, rat. As to conditions: gabapentin 100 mg/kg p.o.
Source text: as §1
Behavioral tests were conducted in a non-blind fashion. The foot withdrawal threshold to mechanical stimuli applied to the paw (mechanical threshold) was measured, as an indicator of mechanical sensitivity of the affected paw. The foot withdrawal threshold was measured using von Frey filaments. It is generally thought that von Frey filaments are more sensitive than electronic von Frey probes for measuring tactile stimulation. The mechanical thresholds were measured by using the “up-and-down” method (Chaplan et al., J. Neurosci. Methods 53(1):55-63, 1994), following the procedures described in previous studies (Park et al., Pain 87(2):171-179, 2000; Xie et al., J. Pain 2(5):270-278, 2001; Baik et al., J. Pain 4:212-221, 2003). In brief, rats were placed in a transparent plastic box on a metal wire mesh floor. To determine the threshold stiffness required for 50% paw withdrawal, a series of eight von Frey filaments with approximately equal logarithmic incremental (0.22) von Frey values (3.65, 3.87, 4.10, 4.31, 4.52, 4.74, 4.92, and 5.16) were used. Von Frey (VF) values are logarithmically related to gram (g) values (VF=log (10,000×g)). The chosen von Frey values are therefore equivalent to 0.45, 0.74, 1.26, 2.04, 3.31, 5.50, 8.32, and 14.45 in gram value, respectively. Starting with filament 4.31, von Frey filaments were applied perpendicularly to the ventral surface of the proximal part of the third or fourth toe for 2-3 seconds. Whenever a positive response to a stimulus occurred (paw withdrawal), the next smaller von Frey hair was applied. Whenever a negative response occurred, the next larger one was applied. The test was continued until the response of six stimuli after the first change in response had been obtained or the test had reached either end of the spectrum of the von Frey set.
The 50% threshold value was then calculated using Dixon's formula (Dixon, Ann. Rev. Phar. Tox. 20:441-462, 1980): 50% threshold=X+kd, where X is the value of the final von Frey hair used (in log units), k is the tabular value for the pattern of positive/negative responses, and d is the mean difference between stimuli in log units (0.22). In the cases where continuous positive or negative responses were observed all the way out to the end of the stimulus spectrum, values of 3.54 or 5.27 were assigned, respectively, by assuming a value of (−/+) 0.5 for k in these cases (Dixon, supra, 1980). Outcome of behavioral data were expressed as von Frey values (maximum range from 3.54 to 5.27) and plotted in a linear scale.
Data were expressed as the mean±standard errors of mean (SEM). Differences in mechanical thresholds at various times after injections were tested using two-way (time and group factors) analysis of variance (ANOVA), followed by the Duncan's post-hoc test for multiple comparisons. Statistical analyses were done using the SAS® software program (SAS Institute Inc, Cary, N.C.). Two-tailed p-values<0.05 were considered to be significant.
This experiment was conducted on 8 rats in a Latin-square design examining a dose response of OPC-14523. Gabapentin was prepared at 10 mg/ml in 0.5% tragacanth and administered at 100 mg/kg p.o. Behavioral tests were conducted in a blind fashion twice (1 day and 1 hour) before as well as 1 and 4 days after the neuropathic surgery. […] These 8 rats were randomly divided into 6 groups of 1-2 rats. […]

Turning to `NCC1(CC(=O)O)CCCCC1` [Gabapentin, gabapentin, reference compound], the “level of mechanical threshold increase relative to threshold prior to ligation” value in test [1] is “about half of the mechanical threshold observed prior to the ligation”. For the same molecule, the “effect on mechanical threshold of the lesioned paw for foot withdrawals” value in test [1] (0.5-6 hours) is “significantly increased”; in test [2], “significant increase”.
